Values of other authors as cited in patent US20060014839A1, “Combination of angiotensin II receptor blocker and beta-blocker for secondary prevention of myocardial infarction” (priority 2002, published 2006).

Test system: elderly patients with heart failure
Details: losartan versus captopril 50 mg t.i.d.

SMILES: CCCCc1nc(Cl)c(CO)n1Cc1ccc(-c2ccccc2-c2nn[nH]n2)cc1 [losartan]
- tolerability and increase in serum creatinine (primary objective): no significant differences
- all-cause mortality (722 patients, 49 deaths, preliminary): statistically significant reduction
